Test results: ChEMBL document CHEMBL4043225, “Identification of potent, nonabsorbable agonists of the calcium-sensing receptor for GI-specific administration” (Bioorg Med Chem Lett, 2017)

Key:
[1] = Cmax in CD rat portal vein at 50 mg/kg, po administered via gavage; assay type: ADME, organism-based; parameters: dose 50 mg/kg, route oral
[2] = target: T1, Extracellular calcium-sensing receptor (Homo sapiens) (UniProt P41180); test: (§1) Agonist activity at human CaSR expressed in HEK293 cells assessed as increase in intracellular calcium mobilization by fluo-4AM dye based FLIPR assay; assay type: functional, cell-based
T1 sequence (whole entry): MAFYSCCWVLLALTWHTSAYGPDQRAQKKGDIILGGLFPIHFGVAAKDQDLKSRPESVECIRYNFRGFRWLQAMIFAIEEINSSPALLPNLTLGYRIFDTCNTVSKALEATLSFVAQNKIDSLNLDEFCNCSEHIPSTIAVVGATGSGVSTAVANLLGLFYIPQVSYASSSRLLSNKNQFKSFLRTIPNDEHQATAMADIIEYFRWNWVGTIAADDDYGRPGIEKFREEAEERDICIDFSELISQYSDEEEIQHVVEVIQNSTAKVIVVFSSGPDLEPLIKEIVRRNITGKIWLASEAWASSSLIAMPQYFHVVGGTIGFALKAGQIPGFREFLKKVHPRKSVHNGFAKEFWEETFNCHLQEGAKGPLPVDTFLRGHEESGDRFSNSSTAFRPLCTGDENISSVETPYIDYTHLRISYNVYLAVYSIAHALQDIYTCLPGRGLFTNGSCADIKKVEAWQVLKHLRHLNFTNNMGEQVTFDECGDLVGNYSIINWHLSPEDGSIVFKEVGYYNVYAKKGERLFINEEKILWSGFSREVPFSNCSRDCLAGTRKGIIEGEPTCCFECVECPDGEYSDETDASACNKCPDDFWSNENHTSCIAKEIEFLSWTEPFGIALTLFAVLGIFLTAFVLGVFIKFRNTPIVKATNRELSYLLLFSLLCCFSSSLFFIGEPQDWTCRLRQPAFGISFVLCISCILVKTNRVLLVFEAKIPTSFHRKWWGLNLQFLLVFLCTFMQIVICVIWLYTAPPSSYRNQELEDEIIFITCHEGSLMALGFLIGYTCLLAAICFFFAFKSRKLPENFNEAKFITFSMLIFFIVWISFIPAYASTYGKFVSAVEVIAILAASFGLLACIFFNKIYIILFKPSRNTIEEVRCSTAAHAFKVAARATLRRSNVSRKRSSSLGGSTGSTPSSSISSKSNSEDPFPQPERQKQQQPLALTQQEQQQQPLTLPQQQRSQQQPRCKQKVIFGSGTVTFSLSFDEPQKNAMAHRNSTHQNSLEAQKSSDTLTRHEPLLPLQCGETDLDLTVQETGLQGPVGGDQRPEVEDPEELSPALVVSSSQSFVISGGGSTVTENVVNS

[3] = target: T2, Extracellular calcium-sensing receptor (Homo sapiens, UniProt P41180); test: as §1; assay type: functional, cell-based; conditions: read-out: pEC50 (converted)
T2 sequence (P41180 whole entry): T1 sequence (whole entry)

[4] = Cmax in CD rat systemic circulation at 50 mg/kg, po administered via gavage; assay type: ADME, organism-based; parameters: dose 50 mg/kg, route oral
[5] = Half-life in Sprague-Dawley rat cecal homogenates at 10 uM by LC-MS/MS analysis; assay type: ADME, tissue-based, Caecum
[6] = Cmax in CD rat portal vein at 30 mg/kg, po administered via gavage; assay type: ADME, organism-based; parameters: dose 30 mg/kg, route oral
[7] = Drug recovery in CD rat feces at 30 mg/kg, po administered via gavage measured by LC-MS/MS analysis; assay type: ADME, organism-based; conditions: read-out: Drug recovery
[8] = Cmax in CD rat systemic circulation at 30 mg/kg, po administered via gavage; assay type: ADME, organism-based; parameters: dose 30 mg/kg, route oral

SMILES	Cmax [1]	%max [2]	EC50 [3]	Cmax [4]	half-life at 10 µM [5]	Cmax [6]	dose excreted [7]	Cmax [8]
C[C@@H](N[C@H]1CCN(c2ccc(S(=O)(=O)NCC(=O)O)cc2)C1)c1cccc2ccccc12	1120 ng/mL	83%	39.8 nM	317 ng/mL	> 12 h			
C[C@@H](N[C@H]1CCN(c2ccc(C(=O)NCC(=O)O)cc2)C1)c1cccc2ccccc12		69%	79.4 nM					
C[C@@H](N[C@H]1CCN(c2ccc(C(=O)O)cc2)C1)c1cccc2ccccc12		84%	158 nM		> 12 h			
C[C@@H](N[C@H]1CCN(c2ccc(C(=O)NCC[N+](C)(C)C)cc2)C1)c1cccc2ccccc12.[Cl-]	164 ng/mL	83%	126 nM	154 ng/mL	> 12 h			
C[C@@H](N[C@H]1CCN(c2ccc(C(=O)NCCN)cc2)C1)c1cccc2ccccc12		75%	12.6 nM					
C[C@@H](N[C@H]1CCN(c2ccc(S(=O)(=O)NC(=O)CC(=O)O)cc2)C1)c1cccc2ccccc12		79%	1580 nM					
C[C@@H](N[C@H]1CCN(c2ccc(C(=O)NC(CO)(CO)CO)cc2)C1)c1cccc2ccccc12		80%	39.8 nM		> 12 h			
C[C@@H](N[C@H]1CCN(c2ccc(C(=O)N[C@H](CC(=O)O)C(=O)O)cc2)C1)c1cccc2ccccc12		79%	398 nM		9.1 h	12 ng/mL	65%	9 ng/mL
C[C@@H](N[C@H]1CCN(c2ccc(S(=O)(=O)NCCn3cnc(C(=O)O)c3C(=O)O)cc2)C1)c1cccc2ccccc12		127%	7.94 nM					
C[C@@H](N[C@H]1CCN(c2ccc(C(=O)NCCn3cnc(C(=O)O)c3C(=O)O)cc2)C1)c1cccc2ccccc12		96%	5.01 nM		7.8 h	6 ng/mL	54%	< 4 ng/mL
